Measurements from patent US6900187B2, “TRPM-2 antisense therapy using an oligonucleotide having 2′-O-(2-methoxy)ethyl modifications” (The University of British Columbia, priority 1999, dated 2005).
Where two headings read alike, the source gives them in different places.

Columns and labels:
human RCC CaKi-2 cells = test: MTT assay of CaKi-2 cell growth, ODN plus taxol; type: cell-based; conditions: CAKI-2, CaKi-2 cells
Experimental: (§1) Immunohistochemical staining was used to characterize TRPM-2 expression in 17 RCC and normal kidney tissues obtained from radical nephrectomy specimens. TRPM-2 expression in human renal cancer cell lines ACHN, CaKi-1 and CaKi-2 was evaluated by Northern and Western blot analyses. Northern blot analysis was used to assess changes in TRPM-2 mRNA expression after antisense TRPM-2 ODN treatment. The effects of combined antisense TRPM-2 ODN and taxol treatment on CaKi-2 cell growth was examined using a MTT assay (Zellweger et al., Neoplasia 3: 360-367 (2001)).

human TRPM-2 mRNA = test: TRPM-2 mRNA expression in PC-3 and TRPM-2 transfected LNCaP cells; type: cell-based
Experimental: The sequences of these ten ODNs are set forth in the attached Sequence Listing as Seq. ID. Nos. 3-12. The ten human antisense ODNs were evaluated using TRPM-2 transfected LNCaP cells and human prostate cancer PC-3 cells for their ability to inhibit expression of TRPM-2 mRNA. […] ID Nos. 4, 5, and 12. Sequence ID No. 5 corresponds to the sequence used by Sensibar, et al. that produced inhibition of TRPM-2 expression in LNCaP cells, and is complementary to the first 21 bases of the TRPM-2 mRNA. […] ID No. 4. Common to all of the effective sequences is an overlap with either the initiation or termination sites of the TRPM-2 mRNA. Thus, it was shown that inhibition of expression of TRPM-2 may be accomplished by the administration of antisense ODNs, particularly antisense ODNs which are complementary to a region of the TRPM-2 mRNA spanning either the translation initiation site or the termination site.
To identify appropriate antisense TRPM-2 ODN sequences for use in human therapy, antisense ODN sequences directed against 10 different sites of the human TRPM-2 gene (FIG. 2, Seq. ID Nos. 3-12) were synthesized and tested for their ability to decrease TRPM-2 gene expression in human prostate cancer PC-3 and transfected LNCaP cells that overexpress TRPM-2 using the same treatment protocol described in Example 2. As shown, sequences 4, 5 and 12 are active for reduction of TRPM-2 expression. These three sequences overlap or are immediately adjacent to the translation initiation or termination sites.

Shionogi cells = test: Viability of Shionogi cells treated with chemotherapy agent plus ODN; type: cell-based, mouse; conditions: antisense Bcl-2 ODN added to antisense TRPM-2 ODN and taxol
Experimental: Shionogi cells maintained in vitro were treated with varying amounts of taxol alone or in combination with 500 nM antisense TRPM-2 ODN (Seq. ID. No. 1) or the mismatch control (Seq. ID No. 2). The cells were treated twice, as described in Example 2, and the percentage of viable cells remaining was determined. As shown, the inclusion of antisense TRPM-2 ODN shifted the dose-response curve to the left, lowering the IC50 by a factor of 5 to 10.
The experiment of Example 3 was repeated, with the addition of antisense Bcl-2 ODN (Seq. ID. No. 13) or a mismatch Bcl-2 ODN (Seq. ID. No. 14) in various combinations with antisense/mismatch TRPM-2 ODN and taxol. […] Thus, the targeting of additional anti-apoptotic agents appears to provide therapeutic benefits.

TRPM-2 = conditions: cited from earlier work
TRPM-2 mRNA [1] = test: Northern blot of TRPM-2 expression in CaKi-2 cells; type: cell-based, human
Experimental: as §1

TRPM-2 mRNA [2] = test: Northern blot of TRPM-2 mRNA in Shionogi tumor cells in vitro; type: cell-based, mouse; conditions: varying ODN concentrations with lipofectin, treated twice over two days
Experimental: The sequence selectivity of the antisense TRPM-2 ODN (Seq. ID. No. 1) was confirmed by comparing expression levels of TRPM-2 mRNA in Shionogi tumor cells maintained in vitro, after treatment with the varying levels of antisense TRPM-2 ODN or a mismatch control (Seq. ID. No. 2). To facilitate uptake of the ODNs into the cells, the ODNs were formulated in a cationic lipid carrier (Lipofectin, (Life Technologies, Inc.)). Cells were treated twice over a period of two days using the following protocol. Cells were preincubated for 20 minutes with 4 μg/ml of lipofectin in serum free OPTI-MEM (Life Technologies, Inc.) and then incubated with the medium containing the selected concentration of ODN and lipofectin for four hours. The medium was then replaced with the standard culture medium.
The amount of TRPM-2 mRNA in the cells was evaluated using Northern blot analysis. […] In contrast, TRPM-2 mRNA levels were not affected by the mismatch ODN (Seq. ID. No. 2) at any of the employed concentrations. Thus, the affect of antisense TRPM-2 ODN is apparently sequence specific.

[3] = Side effects in Shionogi tumor mice; type: in vivo, mouse; conditions: 12.5 mg/kg i.p. once daily for 40 days
Experimental: Mice were randomly selected for treatment with murine phosphorothioate antisense TRPM-2 ODN (Seq. ID No. 1) or a mismatch control (Seq. ID No. 2) which is two bases different in sequence from the antisense TRPM-2 ODN. Each experimental group consisted of 7 mice. One day after castration, 12.5 mg/kg of antisense TRPM-2 or mismatch control ODN dissolved in phosphate buffered saline were injected intraperitoneally once daily into each mouse of 40 days. Tumor volume was measured twice weekly, and calculated by the formula length×width×depth×0.5236. Gleave et al., Cancer Res. 52: 1598-1605 (1992). Data points were reported as average tumor volumes±standard deviation.

## CC(=O)O[C@H]1C(=O)[C@@]2(C)[C@H]([C@H](OC(=O)c3ccccc3)[C@]3(O)C[C@H](OC(=O)[C@H](O)[C@@H](NC(=O)c4ccccc4)c4ccccc4)C(C)=C1C3(C)C)[C@]1(OC(C)=O)CO[C@@H]1C[C@@H]2O [taxol]
Human RCC CaKi-2 cells; with antisense TRPM-2 ODN
  IC50: 50 nM
Human RCC CaKi-2 cells; with mismatch control ODN
  IC50: 500 nM

## Seq. ID No. 5: human antisense phosphorothioate ODN complementary to the first 21 bases of the TRPM-2 mRNA (ATTGTCTGAGACCGTCTGGTC; DNA, all phosphorothioate, methylation of C not given here)
Human TRPM-2 mRNA
  inhibition of TRPM-2 mRNA expression: best results
Human TRPM-2 mRNA; listed as 5
  inhibition of TRPM-2 mRNA expression: active

## Seq. ID No. 12: human antisense phosphorothioate ODN overlapping or adjacent to translation initiation or termination site of TRPM-2 mRNA (GCTGGGCGGAGTTGGGGGCCT; DNA, all phosphorothioate, methylation of C not given here)
Human TRPM-2 mRNA
  inhibition of TRPM-2 mRNA expression: best results
Human TRPM-2 mRNA; listed as 12
  inhibition of TRPM-2 mRNA expression: active

## antisense Bcl-2 ODN: antisense Bcl-2 ODN (Seq. ID. No. 13) (antisense TCTCCCGGCTTGCGCCAT; listed as DNA, chemistry not given here)
Shionogi cells
  cytotoxic effects of taxol in combination with antisense TRPM-2 ODN and antisense Bcl-2 ODN: further enhanced the cytotoxic effects of taxol

## antisense molecule corresponding to the bases 1-21 of the TRPM-2 sequence: antisense molecule of Sensibar et al.; Seq. ID No. 5 corresponds to its sequence (antisense ATTGTCTGAGACCGTCTGGTC; listed as DNA, chemistry not given here)
TRPM-2; LNCaP cells exposed to TNFα
  apoptotic cell death: increase in apoptotic cell death
TRPM-2; transfected LNCaP cells
  expression of TRPM-2: substantial reduction in expression of TRPM-2

## mismatch control ODN: mismatch control two bases different in sequence from the antisense TRPM-2 ODN (DNA GCACAGCAGCAGGATCTTCAT; DNA, backbone and methylation of C not given here)
TRPM-2 mRNA [1]
  TRPM-2 expression in CaKi-2 cells: not
TRPM-2 mRNA [2]
  TRPM-2 mRNA levels in Shionogi cells: not affected
[3]
  side effects: No side effects
